ChEMBL document CHEMBL1201862, “PubChem BioAssay data set” (2004)
Counter-ions that a name gives are not always drawn.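 1) Cells in 96-well plates. 2) Compound, 48 h, 5 concentrations. 3) Linear interpolation between surrounding doses. 4) Unreached endpoint = highest concentration. GI50 = concentration required for 50% inhibition of growth.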 Activity calls are given as the source filed them. No stated cut-off is given here; in the data, active = GI50 up to about 1.1 µM and inactive = higher.

Experiments:
Experiment in all cases: DTP human tumour cell line panel, 48 h
ACHN = test system: ACHN
DU-145 = test system: DU-145
HOP-92 = test system: HOP-92
HT-29 = test system: HT-29
K562 = test system: K562
KM12 = test system: KM12
MDA-N = test system: MDA-N
Malme-3M = test system: Malme-3M
NCI-H23 = test system: NCI-H23
OVCAR-8 = test system: OVCAR-8
RXF 393 = test system: RXF 393
SF-295 = test system: SF-295
SK-MEL-28 = test system: SK-MEL-28
SW-620 = test system: SW-620
TK-10 = test system: TK-10
U-251 = test system: U-251
UACC-62 = test system: UACC-62
NCI-H226 = test system: NCI-H226
SK-OV-3 = test system: SK-OV-3
SF-539 = test system: SF-539

Measured: GI50

Oc1ccc(-c2ccccc2)nn1
inactive: ACHN > 100 µM | DU-145 > 100 µM | HOP-92 > 100 µM | HT-29 > 100 µM | K562 > 100 µM | KM12 > 100 µM | MDA-N > 100 µM | Malme-3M > 100 µM | NCI-H23 > 100 µM | OVCAR-8 > 100 µM | RXF 393 > 100 µM | SF-295 > 100 µM | SK-MEL-28 > 100 µM | SW-620 > 100 µM | TK-10 > 100 µM | U-251 > 100 µM | UACC-62 > 100 µM

CCCCCCCCCCCCn1c(=O)cc(NCCCC)c2cc3c(NCCCC)cc(=O)n(CCCCCCCCCCCC)c3nc21
inactive: ACHN > 100 µM | DU-145 > 100 µM | HOP-92 > 100 µM | K562 > 100 µM | KM12 > 100 µM | MDA-N > 100 µM | Malme-3M > 100 µM | NCI-H226 > 100 µM | NCI-H23 > 100 µM | SF-295 > 100 µM | SK-MEL-28 > 100 µM | SK-OV-3 > 100 µM | TK-10 > 100 µM | U-251 > 100 µM | UACC-62 > 100 µM

Cn1c(=O)c2[nH]c(N=O)nc2n(C)c1=O
inactive: DU-145 > 100 µM | HT-29 > 100 µM | K562 > 100 µM | KM12 > 100 µM | MDA-N > 100 µM | Malme-3M > 100 µM | NCI-H226 > 100 µM | NCI-H23 > 100 µM | OVCAR-8 > 100 µM | RXF 393 > 100 µM | SF-295 > 100 µM | SF-539 > 100 µM | SK-MEL-28 > 100 µM | SK-OV-3 > 100 µM | SW-620 > 100 µM | TK-10 > 100 µM | U-251 > 100 µM | UACC-62 > 100 µM

Cn1c(=O)oc2cc(C(=S)N3CCC(Cc4ccccc4)CC3)ccc21
inactive: ACHN > 100 µM | DU-145 > 100 µM | HT-29 > 100 µM | K562 61.7 µM | KM12 > 100 µM | MDA-N > 100 µM | Malme-3M > 100 µM | NCI-H226 > 100 µM | NCI-H23 > 100 µM | OVCAR-8 > 100 µM | RXF 393 > 100 µM | SF-295 > 100 µM | SF-539 > 100 µM | SK-MEL-28 > 100 µM | SK-OV-3 > 100 µM | SW-620 > 100 µM | TK-10 > 100 µM | U-251 64.7 µM | UACC-62 > 100 µM

COc1cc(C2SCC(=O)N2c2cccc(Cl)c2)cc(OC)c1OC (stereo not drawn)
inactive: ACHN > 100 µM | DU-145 63.7 µM | HOP-92 31.2 µM | HT-29 > 100 µM | K562 36.1 µM | KM12 47.8 µM | MDA-N 17.2 µM | NCI-H226 > 100 µM | NCI-H23 > 100 µM | OVCAR-8 > 100 µM | SF-295 43.7 µM | SF-539 > 100 µM | SK-MEL-28 > 100 µM | SK-OV-3 > 100 µM | SW-620 > 100 µM | TK-10 > 100 µM | U-251 > 100 µM | UACC-62 11.3 µM

COc1ccc2c3c1O[C@H]1C(=O)C=CC4(n5[nH]c(=O)n(-c6ccccc6)c5=O)C(C2)N(C)CCC314 (stereo partly drawn)
inactive: ACHN > 100 µM | DU-145 > 100 µM | HOP-92 > 100 µM | HT-29 > 100 µM | K562 > 100 µM | KM12 > 100 µM | MDA-N > 100 µM | Malme-3M > 100 µM | NCI-H226 > 100 µM | NCI-H23 > 100 µM | OVCAR-8 > 100 µM | SF-295 > 100 µM | SF-539 > 100 µM | SK-MEL-28 > 100 µM | SK-OV-3 > 100 µM | SW-620 > 100 µM | TK-10 > 100 µM | U-251 > 100 µM | UACC-62 > 100 µM

COC(=O)[C@H](COC(C)(C)C)NC(=O)N[C@H](C)c1ccccc1
inactive: ACHN > 100 µM | DU-145 > 100 µM | HOP-92 > 100 µM | HT-29 > 100 µM | K562 > 100 µM | KM12 > 100 µM | MDA-N > 100 µM | NCI-H226 > 100 µM | NCI-H23 > 100 µM | OVCAR-8 > 100 µM | SF-295 > 100 µM | SF-539 > 100 µM | SK-MEL-28 > 100 µM | SK-OV-3 > 100 µM | SW-620 > 100 µM | TK-10 > 100 µM | U-251 > 100 µM | UACC-62 > 100 µM

Cn1c(N)cc(=O)nc1N
inactive: ACHN > 100 µM | DU-145 > 100 µM | HT-29 > 100 µM | K562 > 100 µM | KM12 > 100 µM | MDA-N > 100 µM | Malme-3M > 100 µM | NCI-H226 > 100 µM | NCI-H23 > 100 µM | OVCAR-8 > 100 µM | SF-295 > 100 µM | SF-539 > 100 µM | SK-MEL-28 > 100 µM | SK-OV-3 > 100 µM | SW-620 > 100 µM | TK-10 > 100 µM | U-251 > 100 µM | UACC-62 > 100 µM

CN(C)CC[N+](C)(C)[BH2-]C(O)O
inactive: ACHN > 100 µM | DU-145 > 100 µM | HOP-92 > 100 µM | HT-29 > 100 µM | K562 > 100 µM | KM12 > 100 µM | MDA-N > 100 µM | NCI-H23 > 100 µM | RXF 393 > 100 µM | SF-295 > 100 µM | SF-539 > 100 µM | SK-MEL-28 > 100 µM | SW-620 > 100 µM | TK-10 > 100 µM | U-251 > 100 µM | UACC-62 > 100 µM

Oc1ccc(-c2nc(-c3cccnc3)c(-c3ccc(Cl)cc3)[nH]2)cc1
inactive: ACHN 14.5 µM | DU-145 14.3 µM | HT-29 15.2 µM | K562 10.5 µM | KM12 11.9 µM | MDA-N 12.6 µM | Malme-3M 13.5 µM | NCI-H226 18.8 µM | NCI-H23 13 µM | OVCAR-8 14.8 µM | RXF 393 13.3 µM | SF-295 14 µM | SK-MEL-28 16 µM | SK-OV-3 13.6 µM | SW-620 14.6 µM | TK-10 13.3 µM | U-251 14.3 µM | UACC-62 12.9 µM

CN(C)CCOc1ccc(/C(=C(/CCCl)c2ccccc2)c2ccccc2)cc1 [TOREMIFENE CITRATE]
inactive: ACHN 17.5 µM | DU-145 17.7 µM | HOP-92 3.67 µM | HT-29 5.81 µM | K562 11.5 µM | KM12 17.7 µM | MDA-N 16.4 µM | Malme-3M 17.9 µM | NCI-H226 19.1 µM | NCI-H23 17.5 µM | OVCAR-8 17.7 µM | SF-295 15 µM | SF-539 16.2 µM | SK-MEL-28 16 µM | SW-620 16.5 µM | TK-10 15.3 µM | U-251 17.8 µM
